In patent publication US11154571B2, “Exosomes sourced from granulocytic myeloid-derived suppressor cells and application thereof” (Jiangsu University, priority 2015, dated 2021):

Molecular target: T1, Arg-1 (Mus musculus, UniProt Q61176)
T1 construct: endogenous in cells; host or cells: primary G-MDSCs sorted from the spleen of tumor-bearing or CIA mice, and exosomes from their culture supernatant
T1 sequence (Q61176 1-323): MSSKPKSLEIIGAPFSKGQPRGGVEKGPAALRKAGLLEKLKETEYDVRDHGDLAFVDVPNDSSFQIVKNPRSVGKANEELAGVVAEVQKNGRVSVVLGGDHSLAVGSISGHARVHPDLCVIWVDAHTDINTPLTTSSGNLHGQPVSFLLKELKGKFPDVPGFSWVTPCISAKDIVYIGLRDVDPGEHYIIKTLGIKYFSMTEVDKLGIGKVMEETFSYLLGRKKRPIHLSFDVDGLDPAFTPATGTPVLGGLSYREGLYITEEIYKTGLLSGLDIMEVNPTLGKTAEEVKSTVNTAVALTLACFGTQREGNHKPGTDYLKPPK
Experiment: Arg-1 activity detection (arginase assay kit)
Format: biochemical
Conditions: nor-NOHA (5 mg/ml in DMSO) added to G-MDSC culture; FIG. 7A
Description: (1) The activity detection of Arg-1 in G-MDSC exo and inhibition effect of nor-NOHA on the Arg-1 activity in G-MDSC exo: The sorted G-MDSCs are same to example 1. Inoculate 2×10^6 G-MDSCs per well in 24 well plate, and add 1 ml of RPMI-1640 medium and culture at 37° C., 5% CO2 for 16 h. The culture supernatant is collected and used for preparing G-MDSC exo, then the G-MDSC exo was lysed (the same with example 2), and the G-MDSC exo activity was measured with the arginase assay kit from eBioscience company. 5 mg of nor-NOHA powder was dissolved with 1 ml of DMSO, 5 mg/ml nor-NOHA solution is prepared. Experimental groups were treated as follows:
G-MDSC group: G-MDSCs were cultured, and cells are collected.
(G-MDSC+DMSO) group: G-MDSC is cultured after adding […] of DMSO, and cells were collected.
(G-MDSC+NN) group: G-MDSC is cultured after adding […] of nor-NOHA, and cells were collected.
G-MDSC exo group: G-MDSC is cultured, culture supernatant was collected.
(G-MDSC+DMSO) exo group: G-MDSC is cultured after adding […] of DMSO, culture supernatant was collected.
(G-MDSC+NN) exo group: G-MDSC is cultured after adding […] of nor-NOHA, culture supernatant was collected.

inhibition of Arg-1 activity in G-MDSC exo: could be inhibited
Compound: N=C(NO)NCC[C@H](N)C(=O)O [NN, nor-NOHA]
